In US10485235B2, “Aryloxypyrimidinyl ethers as herbicides” (FMC Corporation, priority 2015, dated 2019):

Experiments:
[1] = tested on: rice (Oryza sativa); test: Test B flooded paddy test, rice; type: in vivo; conditions: Oryza sativa; 250 g ai/ha, Flood; visual rating after 13 to 15 days; scale 0 to 100, 0 is no effect, 100 is complete control; read-out: Plant response rating, Rice
Method in brief: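 Visual injury scored 0 (no effect) to 100 (complete control) relative to controls 13-15 days after treatment in greenhouse. Treatment: test compound added into paddy water of pots flooded 3 cm over soil, holding 2-leaf-stage plants; water level kept constant.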

[2] = tested on: pigweed (Amaranthus retroflexus); test: Test A postemergence, pigweed; type: in vivo; conditions: Amaranthus retroflexus, post-emergence, 240 h, postemergence, 0 to 100 scale, 0 is no effect, 100 is complete control, approximately 10 days, read-out: Plant response rating, Pigweed; for pest or weed control at 31 g/ha: 31 g ai/ha; for pest or weed control at 125 g/ha: 125 g ai/ha; for pest or weed control at 500 g/ha: 500 g ai/ha
Method in brief: (§1)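 Injury was assessed visually about ten days after application, relative to untreated plants, with 0 meaning no effect and 100 complete control. Treatments were soil-directed sprays after sowing (pre) or sprays on seedlings at one to two leaves (post), in loam soil/sand.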

[3] = tested on: foxtail, giant (giant foxtail, Setaria faberii); test: Test A postemergence, giant foxtail; type: in vivo; conditions: Setaria faberi, post-emergence, 240 h, postemergence, 0 to 100 scale, 0 is no effect, 100 is complete control, approximately 10 days, read-out: Plant response rating, Foxtail, Giant; for pest or weed control at 31 g/ha: 31 g ai/ha; for pest or weed control at 125 g/ha: 125 g ai/ha; for pest or weed control at 500 g/ha: 500 g ai/ha
Method in brief: as §1

[4] = tested on: barnyardgrass (Echinochloa crus-galli); test: Test A postemergence, barnyardgrass; type: in vivo; conditions: Echinochloa crus-galli, post-emergence, 240 h, postemergence, 0 to 100 scale, 0 is no effect, 100 is complete control, approximately 10 days, read-out: Plant response rating, Barnyardgrass; for pest or weed control at 31 g/ha: 31 g ai/ha; for pest or weed control at 125 g/ha: 125 g ai/ha; for pest or weed control at 500 g/ha: 500 g ai/ha
Method in brief: as §1

[5] = tested on: kochia (Kochia scoparia); test: Test A postemergence, kochia; type: in vivo; conditions: Bassia scoparia, post-emergence, 240 h, postemergence, 0 to 100 scale, 0 is no effect, 100 is complete control, approximately 10 days, read-out: Plant response rating, Kochia; for pest or weed control at 31 g/ha: 31 g ai/ha; for pest or weed control at 125 g/ha: 125 g ai/ha; for pest or weed control at 500 g/ha: 500 g ai/ha
Method in brief: as §1

Row | melting point [°C] | SMILES | plant injury at 250 g/ha [1] [%] | pest or weed control at 31 g/ha [2] [%] | pest or weed control at 125 g/ha [2] [%] | pest or weed control at 31 g/ha [3] [%] | pest or weed control at 125 g/ha [3] [%] | pest or weed control at 31 g/ha [4] [%] | pest or weed control at 125 g/ha [4] [%] | pest or weed control at 31 g/ha [5] [%] | pest or weed control at 125 g/ha [5] [%] | pest or weed control at 500 g/ha [2] [%] | pest or weed control at 500 g/ha [3] [%] | pest or weed control at 500 g/ha [4] [%] | pest or weed control at 500 g/ha [5] [%]
1 |  | FC(F)C(F)(F)COc1c(Br)cccc1Oc1ncc(Cl)cn1 [Compound 18, 2-[3-bromo-2-(2,2,3,3-tetrafluoropropoxy)phenoxy]-5-chloropyrimidine] | 0 |  | 100 |  | 40 |  | 30 |  | 100 | 100 | 100 | 100 | 100
2 | 102 to 106 | N#Cc1cccc(Oc2ncc(Cl)cn2)c1OC/C=C/C(F)(F)F [Compound 8, 3-[(5-chloro-2-pyrimidinyl)oxy]-2-[[(2E)-4,4,4-trifluoro-2-buten-1-yl]oxy]benzonitrile] | 0 | 90 | 100 | 20 | 90 | 20 | 60 | 80 | 100 |  |  |  | 
3 |  | Cc1cccc(Oc2ncc(Cl)cn2)c1OCC(F)(F)F [Compound 63] | 0 | 0 | 0 | 0 | 0 | 0 | 0 | 0 | 0 |  |  |  | 
4 | 58 to 63 | N#Cc1cccc(Oc2ncc(F)cn2)c1OCC(F)(F)F [Compound 41] |  | 30 | 70 | 0 | 0 | 0 | 0 | 30 | 60 |  |  |  | 
5 |  | N#Cc1cccc(Oc2ncc(Cl)cn2)c1OCC(F)(F)F [Compound 1] |  | 60 | 90 | 10 | 20 | 0 | 30 | 60 | 80 |  |  |  | 
6 |  | FC(F)(F)COc1c(Cl)cccc1Oc1ncc(Cl)cn1 [Compound 42] | 0 | 20 | 60 | 0 | 10 | 0 | 10 | 0 | 10 |  |  |  | 
7 |  | N#Cc1cccc(Oc2ncc(Cl)cn2)c1OCC(F)(F)C(F)(F)F [Compound 10, 3-[(5-chloro-2-pyrimidinyl)oxy]-2-(2,2,3,3,3-pentafluoropropoxy)benzonitrile] | 20 |  | 100 |  | 100 |  | 90 |  | 100 | 100 | 100 | 100 | 100
8 |  | Fc1cccc(Oc2ncc(Cl)cn2)c1OCC(F)(F)F [Compound 28] | 0 |  | 30 |  | 0 |  | 0 |  | 0 | 70 | 20 | 20 | 10
9 |  | CCCCOc1c(C#N)cccc1Oc1ncc(Cl)cn1 [Compound 35, 2-butoxy-3-[(5-chloro-2-pyrimidinyl)oxy]benzonitrile] | 0 |  | 90 |  | 90 |  | 80 |  | 100 | 100 | 90 | 100 | 100
10 | 87 to 90 | FC(F)(F)COc1c(I)cccc1Oc1ncc(Cl)cn1 [Compound 65] | 0 | 70 | 100 | 10 | 50 | 0 | 60 | 80 | 100 |  |  |  | 
11 |  | N#Cc1cccc(Oc2ncc(Cl)cn2)c1OCCC(F)(F)F [Compound 23, 3-[(5-chloro-2-pyrimidinyl)oxy]-2-(3,3,3-trifluoropropoxy)benzonitrile] | 30 | 100 | 100 | 20 | 90 | 50 | 90 | 90 | 100 |  |  |  | 
12 |  | CCCCOc1c(Br)cccc1Oc1ncc(Cl)cn1 [Compound 13, 2-[3-bromo-2-(butoxy)phenoxy]-5-chloropyrimidine] | 20 |  | 100 |  | 90 |  | 90 |  | 100 | 100 | 100 | 100 | 100

Row | SMILES | melting point [°C] | plant injury at 250 g/ha [1] [%] | pest or weed control at 31 g/ha [2] [%] | pest or weed control at 125 g/ha [2] [%] | pest or weed control at 31 g/ha [3] [%] | pest or weed control at 125 g/ha [3] [%] | pest or weed control at 31 g/ha [4] [%] | pest or weed control at 125 g/ha [4] [%] | pest or weed control at 31 g/ha [5] [%] | pest or weed control at 125 g/ha [5] [%] | pest or weed control at 500 g/ha [2] [%] | pest or weed control at 500 g/ha [3] [%] | pest or weed control at 500 g/ha [4] [%] | pest or weed control at 500 g/ha [5] [%]
13 | N#Cc1cccc(Oc2ncc(F)cn2)c1OCCCC(F)(F)F [Compound 4, 3-[(5-fluoro-2-pyrimidinyl)oxy]-2-(4,4,4-trifluorobutoxy)benzonitrile] | 70 to 74 | 30 | 100 | 100 | 70 | 100 | 20 | 90 | 90 | 100 |  |  |  | 
14 | N#Cc1cccc(Oc2ncc(Cl)cn2)c1OCCCC(F)(F)F [Compound 5, 3-[(5-chloro-2-pyrimidinyl)oxy]-2-(4,4,4-trifluorobutoxy)benzonitrile] | 51 to 54 | 40 | 100 | 100 | 60 | 100 | 70 | 100 | 100 | 100 |  |  |  | 
